# Reference: PubChem BioAssay (NCI)
#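 Values below derive from 48-hour exposures of cells grown in 96-well plates, with endpoints linearly interpolated between the two concentrations bracketing the appropriate inhibition level. GI50 = concentration required for 50% inhibition of growth. At the TGI there is no net growth.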
# Key:
# Assay in all cases: DTP human tumour cell line panel, 48 h
# PC-3 prostate = test system: PC-3 prostate
# ACHN renal = test system: ACHN renal
# HL-60(TB) leukemia = test system: HL-60(TB) leukemia
# COLO 205 colon = test system: COLO 205 colon
# SK-MEL-28 melanoma = test system: SK-MEL-28 melanoma
# RXF 393 renal = test system: RXF 393 renal
# MOLT-4 leukemia = test system: MOLT-4 leukemia
# EKVX NSCLC = test system: EKVX NSCLC
# HOP-92 NSCLC = test system: HOP-92 NSCLC
# MALME-3M melanoma = test system: MALME-3M melanoma
# CCRF-CEM leukemia = test system: CCRF-CEM leukemia
# UACC-257 melanoma = test system: UACC-257 melanoma
# TK-10 renal = test system: TK-10 renal
# SNB-19 CNS = test system: SNB-19 CNS
# NCI-H522 lung = test system: NCI-H522 lung
# HCT-116 colon = test system: HCT-116 colon
# A549 NSCLC = test system: A549 NSCLC
# MDA-MB-231 breast = test system: MDA-MB-231 breast
# HT29 colon = test system: HT29 colon
# MCF7 breast = test system: MCF7 breast
# SK-OV-3 ovarian = test system: SK-OV-3 ovarian
# KM12 colon = test system: KM12 colon
# OVCAR-5 ovarian = test system: OVCAR-5 ovarian
# SW-620 colon = test system: SW-620 colon
# DU-145 prostate = test system: DU-145 prostate
# LOX IMVI melanoma = test system: LOX IMVI melanoma
# OVCAR-3 ovarian = test system: OVCAR-3 ovarian
# HCC-2998 colon = test system: HCC-2998 colon
# A498 renal = test system: A498 renal
# SR leukemia = test system: SR leukemia
# NCI-H23 lung = test system: NCI-H23 lung
# SF-268 CNS = test system: SF-268 CNS
# 786-0 renal = test system: 786-0 renal
# M14 melanoma = test system: M14 melanoma
# SK-MEL-2 melanoma = test system: SK-MEL-2 melanoma
# UACC-62 melanoma = test system: UACC-62 melanoma
# OVCAR-4 ovarian = test system: OVCAR-4 ovarian
# MDA-MB-435 = test system: MDA-MB-435
# HS 578T breast = test system: HS 578T breast
# NCI-H226 lung = test system: NCI-H226 lung
# SN12C renal = test system: SN12C renal
# NCI/ADR-RES ovarian = test system: NCI/ADR-RES ovarian
# BT-549 breast = test system: BT-549 breast
# CAKI-1 renal = test system: CAKI-1 renal
# SNB-75 CNS = test system: SNB-75 CNS
# K-562 leukemia = test system: K-562 leukemia
# SF-539 CNS = test system: SF-539 CNS
# OVCAR-8 ovarian = test system: OVCAR-8 ovarian
# NCI-H460 lung = test system: NCI-H460 lung
# IGROV1 ovarian = test system: IGROV1 ovarian
# UO-31 renal = test system: UO-31 renal
# SK-MEL-5 melanoma = test system: SK-MEL-5 melanoma
# SF-295 CNS = test system: SF-295 CNS
# RPMI-8226 leukemia = test system: RPMI-8226 leukemia
# HCT-15 colon = test system: HCT-15 colon
# U251 CNS = test system: U251 CNS
# HOP-62 NSCLC = test system: HOP-62 NSCLC
structure (smiles),measurement,setting,value
COC1=CC(c2ccc[nH]2)=N/C1=C\c1[nH]c(C)c(C(=O)CCCCC(=O)NC(C)(C)C)c1C,GI50,PC-3 prostate,1210 nM
same,TGI,PC-3 prostate,2570 nM
same,GI50,ACHN renal,1700 nM
same,TGI,ACHN renal,3.7 µM
same,GI50,HL-60(TB) leukemia,1910 nM
same,TGI,HL-60(TB) leukemia,4.06 µM
same,GI50,COLO 205 colon,1220 nM
same,TGI,COLO 205 colon,2460 nM
same,GI50,SK-MEL-28 melanoma,1590 nM
same,TGI,SK-MEL-28 melanoma,3.2 µM
same,GI50,RXF 393 renal,1660 nM
same,TGI,RXF 393 renal,3.6 µM
same,GI50,MOLT-4 leukemia,854 nM
same,TGI,MOLT-4 leukemia,4.29 µM
same,GI50,EKVX NSCLC,1960 nM
same,TGI,EKVX NSCLC,13 µM
same,GI50,HOP-92 NSCLC,1540 nM
same,TGI,HOP-92 NSCLC,4.97 µM
same,GI50,MALME-3M melanoma,1470 nM
same,TGI,MALME-3M melanoma,3.12 µM
same,GI50,CCRF-CEM leukemia,526 nM
same,GI50,UACC-257 melanoma,16 µM
same,TGI,UACC-257 melanoma,35.8 µM
same,GI50,TK-10 renal,1390 nM
same,TGI,TK-10 renal,3.41 µM
same,GI50,SNB-19 CNS,3.01 µM
same,TGI,SNB-19 CNS,18.7 µM
same,GI50,NCI-H522 lung,2090 nM
same,TGI,NCI-H522 lung,6.73 µM
same,GI50,HCT-116 colon,1200 nM
same,TGI,HCT-116 colon,2430 nM
same,GI50,A549 NSCLC,3.34 µM
same,TGI,A549 NSCLC,21.7 µM
same,GI50,MDA-MB-231 breast,957 nM
same,TGI,MDA-MB-231 breast,3.95 µM
same,GI50,HT29 colon,552 nM
same,TGI,HT29 colon,3.11 µM
same,GI50,MCF7 breast,1500 nM
same,TGI,MCF7 breast,2920 nM
same,GI50,SK-OV-3 ovarian,9.31 µM
same,TGI,SK-OV-3 ovarian,25.5 µM
same,GI50,KM12 colon,1160 nM
same,TGI,KM12 colon,2380 nM
same,GI50,OVCAR-5 ovarian,1890 nM
same,TGI,OVCAR-5 ovarian,8.73 µM
same,GI50,SW-620 colon,947 nM
same,TGI,SW-620 colon,2260 nM
same,GI50,DU-145 prostate,1690 nM
same,TGI,DU-145 prostate,3.79 µM
same,GI50,LOX IMVI melanoma,1150 nM
same,TGI,LOX IMVI melanoma,2420 nM
same,GI50,OVCAR-3 ovarian,1220 nM
same,TGI,OVCAR-3 ovarian,2730 nM
same,GI50,HCC-2998 colon,1880 nM
same,TGI,HCC-2998 colon,6.09 µM
same,GI50,A498 renal,2930 nM
same,TGI,A498 renal,10.8 µM
same,GI50,SR leukemia,395 nM
same,TGI,SR leukemia,2350 nM
same,GI50,NCI-H23 lung,1570 nM
same,TGI,NCI-H23 lung,4.46 µM
same,GI50,SF-268 CNS,1600 nM
same,TGI,SF-268 CNS,4.32 µM
same,GI50,786-0 renal,1700 nM
same,TGI,786-0 renal,3.36 µM
same,GI50,M14 melanoma,1620 nM
same,TGI,M14 melanoma,3.1 µM
same,GI50,SK-MEL-2 melanoma,17.7 µM
same,TGI,SK-MEL-2 melanoma,42.5 µM
same,GI50,UACC-62 melanoma,3.59 µM
same,TGI,UACC-62 melanoma,10.8 µM
same,GI50,OVCAR-4 ovarian,1780 nM
same,TGI,OVCAR-4 ovarian,6.29 µM
same,GI50,MDA-MB-435,1750 nM
same,TGI,MDA-MB-435,3.47 µM
same,GI50,HS 578T breast,1750 nM
same,TGI,HS 578T breast,4.26 µM
same,GI50,NCI-H226 lung,2970 nM
same,TGI,NCI-H226 lung,15 µM
same,GI50,SN12C renal,2190 nM
same,TGI,SN12C renal,7.32 µM
same,GI50,NCI/ADR-RES ovarian,1610 nM
same,TGI,NCI/ADR-RES ovarian,3.21 µM
same,GI50,BT-549 breast,1410 nM
same,TGI,BT-549 breast,4.5 µM
same,GI50,CAKI-1 renal,1390 nM
same,TGI,CAKI-1 renal,4.43 µM
same,GI50,SNB-75 CNS,2790 nM
same,TGI,SNB-75 CNS,9 µM
same,GI50,K-562 leukemia,1940 nM
same,GI50,SF-539 CNS,3.27 µM
same,TGI,SF-539 CNS,9.94 µM
same,GI50,OVCAR-8 ovarian,2250 nM
same,TGI,OVCAR-8 ovarian,5.45 µM
same,GI50,NCI-H460 lung,1870 nM
same,TGI,NCI-H460 lung,4.52 µM
same,GI50,IGROV1 ovarian,2100 nM
same,TGI,IGROV1 ovarian,4.59 µM
same,GI50,UO-31 renal,1950 nM
same,TGI,UO-31 renal,6.27 µM
same,GI50,SK-MEL-5 melanoma,1970 nM
same,TGI,SK-MEL-5 melanoma,5.24 µM
same,GI50,SF-295 CNS,2170 nM
same,TGI,SF-295 CNS,6.66 µM
same,GI50,RPMI-8226 leukemia,237 nM
same,TGI,RPMI-8226 leukemia,1640 nM
same,GI50,HCT-15 colon,683 nM
same,TGI,HCT-15 colon,2060 nM
same,GI50,U251 CNS,1290 nM
same,TGI,U251 CNS,2570 nM
same,GI50,HOP-62 NSCLC,1740 nM
same,TGI,HOP-62 NSCLC,5.02 µM
